Here are results for 1 compound from patent publication US20040235920A1, “Novel use of substituted aminomethyl chromans for the treatment of movement disorders and of adverse effects induced by drugs administered to treat extrapyramidal movement disorders” (priority 2001, published 2004).

In assay [1] the test system is Parkinsonian cynomolgus monkey. The assay can be described thus: MPTP Parkinsonian cynomolgus monkey chronically treated with l-dopa (Abnormal Involuntary Movement Scale, rating for psychotic states). The format is in vivo. Conditions: MPTP monkeys, long-term l-dopa. The protocol:
Treatment of adverse effects of conventional anti-Parkinsonian drugs as defined above are determined in a modification of the animal model of the Parkinsonian cynomolgus monkey according to P. J. Blanchet et al., Exp. Neurology 1998; 153: 214-222. Monkeys render parkinsonian by repeated injections of 1-methyl-4-phenyl-1,2,3,6-tetrahydropyridine (MPTP). The Parkinsonian monkeys are chronically treated with the standard l-dopa therapy according to P. J. Blanchet et al., Mov. Disord., 1998; 13: 798-802. Longterm treatment with l-dopa induces extrapyramidal motor side effects and psychotic states which are both qualitatively and quantitatively, assessed by the Abnormal Involuntary Movement Scale (P. J. Blanchet et al., Mov. Disord. 1998; 13: 798-802) for different body parts (face, neck, trunk, each limb) and by rating for psychotic states by observing the monkey's attention, reactivity and mobility. (−)-(R)-2-{4-[[3,4-dihydro-2H-benzopyran-2-yl)-methyl]amino]butyl}-1,2-benzoisothiazol-3-(2H)-on-1,1-dioxide reduced overall choreiform dyskinesias and dystonic dyskinesias as well as psychotic states.

For assay [2], the system named is rat with nigrostriatal degeneration. The assay can be described thus: Striatonigral degeneration in the rat (6-hydroxydopamine plus quinolinic acid), turning behavior. To be noted: automated recorder. The class given is in vivo. From the text: Another more recent animal model is the striatonigral degeneration approach in the rat according to G. K. Wenning et al., J. Neural Transm. Suppl., 1999; 55: 103-113. Rats receive an unilateral injection of 6-hydroxydopamine into the left medial forebrain bundle followed by an injection of quinolinic acid into the ipsilateral striatum inducing nigrostriatal degeneration. The degeneration results in turning behavior to a challenge with dopaminomimetics such as apomorphine or amphetamine. Turning behavior is measured by an automated recorder.

The test system of another assay is 3-NP treated rats. The assay can be described thus: Systemic 3-nitropropionic acid (3-NP) model in rats, nocturnal activity. The class given is in vivo, rat. The protocol: A typical animal model is the systemic 3-nitropropionic acid (3-NP) model in rats according to C. V. Borlongan et al., Brain Res., 1995; 697: 254-257. Rats are treated with injections of the selective striatal neurotoxin 3-NP i.p. every fourth day (C. V. Borlongan et al., Brain Res. Protocols, 1997; 1: 253-257). After two injections of 3-NP, rats display nocturnal hyperactivity reflecting symptoms of early Huntington's disease, whereas rats treated with four injections of 3-NP display nocturnal akinesia (hypoactivity) reflecting symptoms of late Huntington's disease. Nocturnal activity is automatically measured in conventional acitivity cages by infrared beams. (−)-(R)-2-{4-[[3,4-dihydro-2H-benzopyran-2-yl)-methyl]amino]butyl}-1,2-benzoisothiazol-3-(2H)-on-1,1-dioxide or a pharmaceutical acceptable salt thereof reduced both the nocturnal hyperactivity and akinesia.

In assay [3] the test system is patients with Huntington's disease. Briefly: Add-on trial in patients with Huntington's disease (AIMS, UHDRS). The class given is in vivo, human. Conditions: 2.5 to 20 mg b.i.d., typical trial. The protocol:
A typical trial to establish the effect of the compounds according to the invention on chorea, voluntary motor performance, and functional disability in patients with Huntington's disease encompasses 32 genetically diagnosed patients. (−)-(R)-2-{4-[[3,4-dihydro-2H-benzopyran-2-yl)-methyl]amino]butyl}-1,2-benzoisothiazol-3-(2H)-on-1,1-dioxide monohydrochloride or placebo is administered as “add on” to the conventional treatment, which is maintained unchanged during the whole study. The dose of blinded medication is titrated over a period of 3 weeks in a range from 2.5 to 20 mg b.i.d. Then the medication is held constant for 1 week. Assessments are performed in the week before and at the last day of the trial. Chorea is scored using the abnormal involuntary movement scale (AIMS, W. Guy, in: ECDEU assessment manual. Rockville Md: US dept. of health, education and welfare, 1976: 534-537), the unified Huntington's disease rating scale (UHDRS, Huntington study group, 1996, Movement Disord, 11: 136-42), and judgement of video recordings. Voluntary motor performance is assessed using the UHDRS motor scale. Patients and their partners complete a questionnaire regarding functional disability.

For a further assay, the system named is mutant dystonic hamster. The assay can be described thus: Mutant dystonic hamster, scoring of dystonic attacks. Conditions: scoring system. The format is in vivo. From the text:
A typical animal model is the mutant dystonic hamster according to A. Richter and W. Löscher, Prog. Neurobiol. 1998; 54: 633-677. In this genetically dystonic hamsters, dystonic attacks are provoked by taking the animal from the home cage and placing it on a balance. The dystonic syndrome consists of a sequence of abnormal movements, and the severity of the single symptoms is rated by a scoring system.

For assay [4], the system named is neuroleptics sensitized monkey. The assay can be described thus: Neuroleptics sensitized monkey, haloperidol challenge. Conditions: after haloperidol challenge, scoring system. The class given is in vivo. From the text: Another typical animal model is the neuroleptics sensitized monkey according to D. E. Casey, Psychopharmacology, 1996; 124: 134-140. Monkeys treated repeatedly with conventional neuroleptics are highly sensitive to a subsequent challenge dose of neuroleptic drugs. When challenged, the monkeys immediately show extrapyramidal motor side effects such as dystonia, dyskinesias, akathisia, and bradykinesia which are rated by a scoring system. The conventional neuroleptic drug haloperidol is given as a challenge.

In a further assay the test system is Weaver mutant mouse. The assay can be described thus: Weaver mutant mouse, locomotor activity. The format is in vivo. To be noted: activity cages. From the text: Typical genetic models in mutant animals are the Campus Syndrome in the Pietrain pig according to A. Richter et al. (Exp. Neurology, 1995; 134: 205-213) or the Weaver mutant mouse according to J. R. Simon and B. Ghetti (Mol. Neurobiol., 1994; 9: 183-189). In the Campus Syndrome model, these mutant pigs show a high-frequency tremor when standing and during locomotion, but not while lying at rest. Assessment of tremor is made by accelerometric recording. In the Weaver mutant mouse, degenerative cerebellar atrophy is found in association with tremor, gait instability, and toppling over the sides after a few steps.

Assay [5] relates to rats with posthypoxic myoclonus. The assay can be described thus: Posthypoxic myoclonus in rats after cardiac arrest. The class given is in vivo, rat. To be noted: after 8 minutes cardiac arrest. Here is the method:
A typical animal model for myoclonus is myoclonus induced by an acute hypoxic episode according to D. D. Truong et al., Mov. Dsiord., 1994; 9: 201-206). In this model of posthypoxic myoclonus, rats undergo a cardiac arrest for 8 minutes and are resuscitated thereafter. Myoclonic jerks occur spontaneously but can be provoked by auditory stimulation, too, worsening over the days following cardiac arrest.

[6] abbreviates: Abnormal Involuntary Movement Scale.

Take `O=C1c2ccccc2S(=O)(=O)N1CCCCNC[C@H]1CCc2ccccc2O1` [(−)-(R)-2-{4-[[3,4-dihydro-2H-benzopyran-2-yl)-methyl]amino]butyl}-1,2-benzoisothiazol-3-(2H)-on-1,1-dioxide]: in assay [1] (setting [6]), the dystonic dyskinesias entry is “reduced” and the overall choreiform dyskinesias entry is given as “reduced”. Moreover, the psychotic states result in assay [1] (rating of attention, reactivity and mobility) is reported as “reduced”. In addition, in assay [2], the “turning behavior induced by amphetamine” value is reported as “dose-dependently antagonized” and the “turning behavior induced by apomorphine” value is “dose-dependently antagonized”. Further, the “nocturnal akinesia (hypoactivity)” value in the assay with 3-NP treated rats (after four injections of 3-NP (late Huntington's disease)) is given as “reduced”. In the assay on 3-NP treated rats (after two injections of 3-NP (early Huntington's disease)), the nocturnal hyperactivity result is “reduced”. Moreover, the involuntary motor performance result in assay [3] (AIMS, UHDRS, video) is “significant improvement”. The voluntary motor performance entry in assay [3] (UHDRS motor scale) was “significant improvement”. The “severity of dystonic symptoms” value in the assay with mutant dystonic hamster was “dose-dependently reduced”. The “extrapyramidal motor side effects (dystonia, dyskinesias, akathisia, bradykinesia)” value in assay [4] is “dose-dependently reduce”. In addition, in the assay with Weaver mutant mouse, the locomotor activity entry is reported as “enhanced locomotor activity”. Moreover, in assay [5], the “number of auditory-evoked myoclonic jerks” value is given as “dose-dependently reduce” and the “number of spontaneous myoclonic jerks” value is on record as “dose-dependently reduce”.
